Assay results published in patent US10874745B2, “Antimicrobial peptides and methods of treating gram-negative pathogens: polar and non-polar face analogs” (priority 2017, dated 2020).
Values after ≈ are worked out from the molar mass of the structure shown. Values joined by “and” are separate entries in the source; they are usually repeats but may differ in a detail not shown here. Equal values may be shown once. Read-outs that look alike come from different tables or passages of the source. Non-standard residues stand in square brackets, D forms with d. Residues, ends and D or L forms follow the SMILES beside them. *: point of attachment. MeO(CH2CH2O)23CH2CH2CO = COCCOCCOCCOCCOCCOCCOCCOCCOCCOCCOCCOCCOCCOCCOCCOCCOCCOCCOCCOCCOCCOCCOCCOCCC(=O)*; dDab = NCC[C@@H](N)C(=O)O

Columns and labels:
[1] = Hemolytic activity; type: cell-based, human; conditions: 1% human erythrocytes (red blood cells), pH 7.4
Protocol: (§1) Hemoglobin release was determined spectrophotometrically at 570 nm. […] […] […] With the peptides used in this study the inventors used the HC30/MIC ratio value to calculate the therapeutic index.

[2] = test system: A. baumannii strains resistant to Polymyxin B and Colistin; type: cell-based
[3] = test system: human red blood cells; assay: Hemolytic activity; type: cell-based
Protocol: as §1

[4] = 50% hemolysis of human red blood cells after 18 hours at 37° C.

SMILES | HC50 at 18 h ([1]; human) | MIC ([2]; strain MB9941 (Table 9C)) | MIC ([2]; strain MB9949 (Table 9C)) | MIC ([2]; strain MB9951 (Table 9C)) | MIC ([2]; strain MB9952 (Table 9C)) | MIC ([2]; strain MB9953 (Table 9C)) | MIC ([2]; strain MB9955 (Table 9C)) | MIC ([2]; strain MB9963 (Table 9C)) | HC50 [3] | HC50 [3, 4] | HC50 at 18 h ([1]; 50% hemolysis of human red blood cells after 18 hours at 37° C., read-out: HC50)
CC(=O)N[C@H](CCCCN)C(=O)N[C@H](CC(C)C)C(=O)N[C@H](CCCCN)C(=O)N[C@H](CO)C(=O)N[C@H](CC(C)C)C(=O)N[C@H](CC(C)C)C(=O)N[C@H](CCCCN)C(=O)N[C@@H](C(=O)N[C@H](CC(C)C)C(=O)N[C@H](CO)C(=O)N[C@H](CCCCN)C(=O)N[C@H](C)C(=O)N[C@H](CCCCN)C(=O)N[C@H](C)C(=O)N[C@H](C)C(=O)N[C@H](CCCCN)C(=O)N[C@H](CC(C)C)C(=O)N[C@H](CCCCN)C(=O)N[C@@H](C(=O)N[C@H](CC(C)C)C(=O)N[C@H](CC(C)C)C(=O)N[C@H](CCCCN)C(=O)N[C@H](C)C(=O)N[C@H](CC(C)C)C(=O)N[C@H](CO)C(=O)N[C@H](CCCCN)C(N)=O)[C@H](C)O)[C@H](C)O [Peptide D84, Ac-KL(Lys)SLL(Lys)TLS(Lys)AKAAKL(Lys)TLL(Lys)ALS(Lys)-amide] | 156 µg/mL | 0.3 µM (≈ 0.86 µg/mL) | 0.7 µM (≈ 2.01 µg/mL) | 0.3 µM (≈ 0.86 µg/mL) | 0.7 µM (≈ 2.01 µg/mL) | 0.7 µM (≈ 2.01 µg/mL) | 0.3 µM (≈ 0.86 µg/mL) | 0.7 µM (≈ 2.01 µg/mL) | – | – | –
CC(=O)N[C@H](CCCCN)C(=O)N[C@H](CC(C)C)C(=O)N[C@H](CCCN)C(=O)N[C@H](CO)C(=O)N[C@H](CC(C)C)C(=O)N[C@H](CC(C)C)C(=O)N[C@H](CCCN)C(=O)N[C@@H](C(=O)N[C@H](CC(C)C)C(=O)N[C@H](CO)C(=O)N[C@H](CCCN)C(=O)N[C@H](C)C(=O)N[C@H](CCCCN)C(=O)N[C@H](C)C(=O)N[C@H](C)C(=O)N[C@H](CCCCN)C(=O)N[C@H](CC(C)C)C(=O)N[C@H](CCCN)C(=O)N[C@@H](C(=O)N[C@H](CC(C)C)C(=O)N[C@H](CC(C)C)C(=O)N[C@H](CCCN)C(=O)N[C@H](C)C(=O)N[C@H](CC(C)C)C(=O)N[C@H](CO)C(=O)N[C@H](CCCN)C(N)=O)[C@H](C)O)[C@H](C)O [Peptide D85, Ac-KL(Orn)SLL(Orn)TLS(Orn)AKAAKL(Orn)TLL(Orn)ALS(Orn)-amide] | 406 µg/mL | 0.7 µM (≈ 1.95 µg/mL) | 0.7 µM (≈ 1.95 µg/mL) | 0.7 µM (≈ 1.95 µg/mL) | 0.4 µM (≈ 1.11 µg/mL) | 0.4 µM (≈ 1.11 µg/mL) | 0.4 µM (≈ 1.11 µg/mL) | 0.4 µM (≈ 1.11 µg/mL) | – | – | –
CC(=O)N[C@H](CCCCN)C(=O)N[C@H](CC(C)C)C(=O)N[C@H](CCN)C(=O)N[C@H](CO)C(=O)N[C@H](CC(C)C)C(=O)N[C@H](CC(C)C)C(=O)N[C@H](CCN)C(=O)N[C@@H](C(=O)N[C@H](CC(C)C)C(=O)N[C@H](CO)C(=O)N[C@H](CCN)C(=O)N[C@H](C)C(=O)N[C@H](CCCCN)C(=O)N[C@H](C)C(=O)N[C@H](C)C(=O)N[C@H](CCCCN)C(=O)N[C@H](CC(C)C)C(=O)N[C@H](CCN)C(=O)N[C@@H](C(=O)N[C@H](CC(C)C)C(=O)N[C@H](CC(C)C)C(=O)N[C@H](CCN)C(=O)N[C@H](C)C(=O)N[C@H](CC(C)C)C(=O)N[C@H](CO)C(=O)N[C@H](CCN)C(N)=O)[C@H](C)O)[C@H](C)O [Peptide D86, Ac-KL(Dbu)SLL(Dbu)TLS(Dbu)AKAAKL(Dbu)TLL(Dbu)ALS(Dbu)-amide] (Ac-[dK][dL][dDab][dS][dL][dL][dDab][dT][dL][dS][dDab][dA][dK][dA][dA][dK][dL][dDab][dT][dL][dL][dDab][dA][dL][dS][dDab]-NH2) | > 2000 µg/mL and > 742 µM | 0.7 µM (≈ 1.89 µg/mL) | 0.7 µM (≈ 1.89 µg/mL) | 1.4 µM (≈ 3.78 µg/mL) | 0.7 µM (≈ 1.89 µg/mL) | 1.4 µM (≈ 3.78 µg/mL) | 0.7 µM (≈ 1.89 µg/mL) | 1.4 µM (≈ 3.78 µg/mL) | >741.5 µM | > 742 µM | –
COCCOCCOCCOCCOCCOCCOCCOCCOCCOCCOCCOCCOCCOCCOCCOCCOCCOCCOCCOCCOCCOCCOCCOCCC(=O)N[C@H](CCCCN)C(=O)N[C@H](CC(C)C)C(=O)N[C@H](CCN)C(=O)N[C@H](CO)C(=O)N[C@H](CC(C)C)C(=O)N[C@H](CC(C)C)C(=O)N[C@H](CCN)C(=O)N[C@@H](C(=O)N[C@H](CC(C)C)C(=O)N[C@H](CO)C(=O)N[C@H](CCN)C(=O)N[C@H](C)C(=O)N[C@H](CCCCN)C(=O)N[C@H](C)C(=O)N[C@H](C)C(=O)N[C@H](CCCCN)C(=O)N[C@H](CC(C)C)C(=O)N[C@H](CCN)C(=O)N[C@@H](C(=O)N[C@H](CC(C)C)C(=O)N[C@H](CC(C)C)C(=O)N[C@H](CCN)C(=O)N[C@H](C)C(=O)N[C@H](CC(C)C)C(=O)N[C@H](CO)C(=O)N[C@H](CCN)C(N)=O)[C@H](C)O)[C@H](C)O [Peptide D86PEG1, m-dPEG24-D86] ({MeO(CH2CH2O)23CH2CH2CO}-[dK][dL][dDab][dS][dL][dL][dDab][dT][dL][dS][dDab][dA][dK][dA][dA][dK][dL][dDab][dT][dL][dL][dDab][dA][dL][dS][dDab]-NH2) | – | 1.1 µM (≈ 4.13 µg/mL) | 2.1 µM (≈ 7.88 µg/mL) | 4.1 µM (≈ 15.4 µg/mL) | 4.1 µM (≈ 15.4 µg/mL) | 8.3 µM (≈ 31.2 µg/mL) | 1.1 µM (≈ 4.13 µg/mL) | 4.1 µM (≈ 15.4 µg/mL) | – | 136.7 µM | 363 µg/mL and 137 µM
